Several values for one entry are separate records, joined by “and”; a condition that tells them apart may be missing. Equal values may be shown once.
Tests used:
[1] = tested on: E. coli (ATCC 25922); type: cell-based, Escherichia coli; conditions: for MIC/CAC, converted data, E. coli: MIC divided by the amphiphile's CAC; for MIC, E. coli: microdilution, serial half-dilution in PBS, Mueller Hinton broth, 37 °C, 24 h, 10^6 CFU/mL, by eye and OD600, ± SD, at least three replicates
Description: (§1) E. coli (ATCC 25922), S. aureus (ATCC 6538), and C. albicans SC5314 (ATCC MYA-2876) were purchased from the American Type Culture Collection (ATCC). The two bacterial strains, E. coli and S. aureus, were cultured in Mueller Hinton broth at 37 °C; while the yeast strain, C. albicans, was grown in RPMI 1640 medium at 30 °C. The microdilution method was employed to determine MICs of the amphiphiles against the microorganism strains listed above.[21] Solutions of lipopeptides and biocides were half-diluted serially in 96-well plates using PBS buffer containing 137 mM NaCl, 2.7 mM KCl, 8.1 mM Na2HPO4, and 1.9 mM KH2PO4 for E. coli and S. aureus and using RPMI 1640 for C. albicans. Overnight incubations of the strains, in each respective growth medium, were then inoculated into each well, giving final concentrations of 10^6 CFU/mL for E. coli and S. aureus and 10^5 CFU/mL for C. albicans. Culture media without microorganisms and amphiphiles were employed as positive controls, while fresh microorganism cultures without amphiphiles were used as negative controls. Each plate has both positive controls and negative controls. The plates were then incubated at an appropriate temperature (stated above) for 24 h for the bacterial strains and 48 h for the yeast strain. MICs of each sample were first determined by eye. A more quantitative analysis was carried out by measuring optical densities at 600 nm (OD600) of each well using a Sunrise absorbance microplate reader (Tecan Group Ltd.). Inhibitory ratios (IRs) of each sample at a given concentration against a specific strain, denoted as IRi, were calculated by IRi = (OD600,negative control – OD600,i)/(OD600,negative control – OD600,positive control) × 100%. All experiments were repeated at least three times with each group containing three replicates. To better analyze concentration–IR relationships, sigmoidal function fittings were employed to generate the best fitted dose response curve for each situation.

[2] = tested on: Human dermal fibroblasts cells (adult, HDFa cells); type: cell-based; conditions: MTT assay, 24 h exposure, 37 °C, absorbance 570 nm, sigmoidal fit; ± SD, at least three replicates; read-out: EC50, HDFa
Description: (§2) Human dermal fibroblasts cells (adult, HDFa cells) and NIH 3T3 fibroblasts cells (3T3 cells, ATCC-1658) were cultured at 37 °C in Dulbecco’s modified Eagle medium (ATCC30-2002, added with 10% heat-inactivated fetal bovine serum) with a continuous supply of CO2 at a 5% level. MTT assays were carried out to examine in vitro cytotoxicity of the amphiphiles.[22] Cells were first inoculated in flat-bottom 96-well plates, rendering 8 × 10^3 cells in 100 μL of medium for each well, and were incubated for 24 h. The cells were mixed with 100 μL of a solution of an amphiphile with 2 times the selected concentrations. Cells were then exposed to the solutions of each amphiphile for 24 h, after which 10 μL of 5 mg/mL MTT solution was added into each well, and the reaction was allowed for 2 h. 200 μL of dimethyl sulfoxide was then added to each well to dissolve the transformed MTT formazan. Light absorbance of the samples was measured using a Thermo Scientific Varioskan LUX at 570 nm. Cell samples 100% viable and 100% dead were employed as the positive control and negative control, respectively. Dose response curves were obtained by applying sigmoidal function fittings to obtain 50% effective concentrations (EC50).

[3] = tested on: NIH 3T3 fibroblasts cells (3T3 cells, ATCC-1658); type: cell-based; conditions: MTT assay, 24 h exposure, 37 °C, absorbance 570 nm, sigmoidal fit; ± SD, at least three replicates; read-out: EC50, NIH/3T3
Description: as §2

[4] = tested on: C. albicans SC5314 (ATCC MYA-2876); type: cell-based, Candida albicans; conditions: for MIC/CAC, converted data, C. albicans: MIC divided by the amphiphile's CAC; for MIC, C. albicans: microdilution in RPMI 1640, 30 °C, 48 h, 10^5 CFU/mL, by eye and OD600, ± SD, at least three replicates
Description: as §1

[5] = tested on: hRBCs; type: cell-based, human; conditions: hemolysis in PBS, 4% hRBC suspension mixed 1:1, 37 °C, 1 h, OD450, sigmoidal fit; ± SD, at least three replicates; read-out: EC50, hRBC (50% hemolysis)
Description: hRBCs were purchased from Rockland Immunochemical Inc. Hemolytic assays were performed in 96-well plates in an environment of PBS, as previously described.[13],[23] Amphiphiles were half diluted serially at first, resulting in 100 μL of solution in each well, and mixed subsequently with 100 μL of 4% hRBC suspension. Wells filled by PBS mixed with hRBC were employed as positive controls, while hRBCs with added 0.1% Triton X-100 were negative controls. After incubating at 37 °C for 1 h, the plates were centrifuged at 1000 times gravity for 5 min. The supernatants in each well, which contained the released hemoglobin, were transferred to another plate, and their optical density at 450 nm (OD450) was measured using an absorbance microplate reader. The percentage of hemolysis H for each sample at a certain concentration c was obtained by Hc = (OD450,c – OD450,positive control)/(OD450,negative control – OD450,positive control) × 100%. Figures for percentage leakage against concentration for each sample were plotted to determine the approximate range of 50% hemolysis, and the relevant concentration was the half maximal effective concentration (EC50) of the sample. Each experiment was repeated at least three times with each containing three replicates. The dose–response curves were again obtained by applying sigmoidal functional fits to obtain the EC50 values.

[6] = tested on: S. aureus (ATCC 6538); type: cell-based, Staphylococcus aureus; conditions: for MIC/CAC, converted data, S. aureus: MIC divided by the amphiphile's CAC; for MIC, S. aureus: microdilution, serial half-dilution in PBS, Mueller Hinton broth, 37 °C, 24 h, 10^6 CFU/mL, by eye and OD600, ± SD, at least three replicates
Description: as §1

Compound | MIC/CAC, converted data, E. coli [1] | MIC, E. coli [1] | EC50 [2] | EC50 [3] | MIC/CAC, converted data, C. albicans [4] | MIC, C. albicans [4] | EC50 [5] | MIC/CAC, converted data, S. aureus [6] | MIC, S. aureus [6]
CCCCCCCCCCCC[N+](C)(C)C.[Br-] [C12TAB, dodecyltrimethylammonium bromide] | 0.20 ± 0.04 | 200 ± 40 µM | 17 ± 5 µM | 12 ± 4 µM | 0.10 ± 0.03 | 100 ± 30 µM | 610 ± 30 µM | 0.03 ± 0.01 | 25 ± 7 µM
CCCCCCCCCCCCCC[N+](C)(C)C.[Br-] [C14TAB, tetradecyltrimethylammonium bromide] | 1 and 1.00 ± 0.30 | 100 ± 30 µM | 7 ± 3 µM | 3 ± 1 µM | 0.12 ± 0.02 | 12 ± 2 µM | 98 ± 8 µM | 0.06 ± 0.04 | 6 ± 4 µM

Source: paper PMC9161444, “In-Membrane Nanostructuring of Cationic Amphiphiles Affects Their Antimicrobial Efficacy and Cytotoxicity: A Comparison Study between a De Novo Antimicrobial Lipopeptide and Traditional Biocides” (Langmuir, 2022)
